Patent US20240197715A1, “PHARMACEUTICAL COMBINATIONS AND USES THEREOF” (NOVARTIS AG, priority 2022, published 2024)

Columns and labels:
[1] = system: SW48; assay: CellTiterGlo in vitro viability, 4-day treatment, SW48; assay type: cell-based
Excerpt: (§1) Growth inhibition %: 0-99=delayed proliferation, 100=growth arrest/stasis, 101-200=reduction in cell number/cell death.

[2] = biological target: WRN (Homo sapiens, UniProt Q14191); assay: WRN ATPase activity assay; assay type: biochemical; conditions: assay of WO2022/249060
Sequence of WRN (Q14191 whole entry): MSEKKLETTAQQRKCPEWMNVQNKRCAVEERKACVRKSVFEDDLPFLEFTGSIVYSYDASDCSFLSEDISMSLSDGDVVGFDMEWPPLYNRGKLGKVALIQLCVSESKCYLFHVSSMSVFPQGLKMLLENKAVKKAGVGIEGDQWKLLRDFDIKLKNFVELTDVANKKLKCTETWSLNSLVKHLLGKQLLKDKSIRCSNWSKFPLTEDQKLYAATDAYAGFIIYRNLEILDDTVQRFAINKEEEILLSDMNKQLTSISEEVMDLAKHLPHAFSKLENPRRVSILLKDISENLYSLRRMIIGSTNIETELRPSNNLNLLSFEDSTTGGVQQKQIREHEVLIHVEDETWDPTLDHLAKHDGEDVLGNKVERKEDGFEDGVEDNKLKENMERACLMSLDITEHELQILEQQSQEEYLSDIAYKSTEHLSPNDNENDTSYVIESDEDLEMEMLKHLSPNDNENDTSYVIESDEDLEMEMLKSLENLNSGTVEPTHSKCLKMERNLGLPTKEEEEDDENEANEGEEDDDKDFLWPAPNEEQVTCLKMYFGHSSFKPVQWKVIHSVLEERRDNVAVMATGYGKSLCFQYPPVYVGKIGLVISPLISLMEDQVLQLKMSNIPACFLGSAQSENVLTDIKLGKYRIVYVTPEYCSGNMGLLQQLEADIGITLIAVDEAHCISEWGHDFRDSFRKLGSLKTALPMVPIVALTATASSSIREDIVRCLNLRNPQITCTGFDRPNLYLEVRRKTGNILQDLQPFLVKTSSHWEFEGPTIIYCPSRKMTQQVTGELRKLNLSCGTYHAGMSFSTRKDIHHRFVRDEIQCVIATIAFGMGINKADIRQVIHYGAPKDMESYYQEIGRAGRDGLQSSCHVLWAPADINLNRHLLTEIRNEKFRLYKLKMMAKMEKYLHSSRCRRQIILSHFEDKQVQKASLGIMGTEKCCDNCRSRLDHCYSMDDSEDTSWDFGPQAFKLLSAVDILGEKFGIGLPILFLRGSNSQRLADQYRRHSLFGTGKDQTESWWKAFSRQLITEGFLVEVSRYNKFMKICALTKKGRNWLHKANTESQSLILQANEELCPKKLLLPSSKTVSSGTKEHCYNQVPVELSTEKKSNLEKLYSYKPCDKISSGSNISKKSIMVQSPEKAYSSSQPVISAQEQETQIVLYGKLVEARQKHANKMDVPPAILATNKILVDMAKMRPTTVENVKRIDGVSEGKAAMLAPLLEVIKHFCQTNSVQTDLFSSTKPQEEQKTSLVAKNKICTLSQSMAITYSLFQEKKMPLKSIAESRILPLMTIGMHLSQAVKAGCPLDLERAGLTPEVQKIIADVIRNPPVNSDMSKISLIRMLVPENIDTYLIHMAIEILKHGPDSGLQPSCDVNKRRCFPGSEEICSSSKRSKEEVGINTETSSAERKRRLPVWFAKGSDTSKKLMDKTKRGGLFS
Excerpt: (§2) According to the assays disclosed in the application PCT/IB2022/054850 published as WO2022/249060, which is hereby incorporated by reference, the compounds were active as shown in Table X

[3] = system: DLD1-WRN-KO; assay: Proliferation assay DLD1-WRN-KO; assay type: cell-based; conditions: assay of WO2022/249060
Excerpt: as §2

[4] = system: SW48; assay: Proliferation assay SW48; assay type: cell-based; conditions: Homo sapiens, assay of WO2022/249060
Excerpt: as §2

[5] = system: SW48 colorectal carcinoma cells; assay: SW48 xenograft efficacy in nude mice; assay type: in vivo; conditions: Example 12; trametinib 0.3 mg/kg p.o. qd; BRAF WT SW48
Experimental: All animals were allowed to adapt for 7 days and housed in a pathogen-controlled environment (5 mice/Type III cage) with access to food and water ad libitum and were identified with transponders.
5.0×10^6 SW48 colorectal carcinoma cells were implanted subcutaneously in nude mice (Charles River, Germany). Treatment was initiated when tumors reached 150-200 mm^3 volume. Efficacy studies and tumor response were measured as above.

[6] = system: HCT116; assay: CellTiterGlo in vitro viability, 4-day treatment, HCT116; assay type: cell-based
Excerpt: as §1

Molecule	proliferation of SW48 cells, single agent [1]	also measured
O=c1cc(N2CCOCC2)oc2c(-c3cccc4c3sc3ccccc34)cccc12 [NU7441 (KU-57788)]	inhibited	
N.N.[Cl][Pt][Cl] [cisplatin]	inhibited	
O=c1[nH]cc(F)c(=O)[nH]1 [5-fluorouracil]	inhibited	
bleomycin	inhibited	
C[C@@H]1CN(CC(=O)Nc2ccc3c(c2)Cc2cccc(-c4cc(=O)cc(N5CCOCC5)o4)c2S3)C[C@H](C)O1 [KU-60019]	inhibited	
CCc1c(N2CCN(C(=O)c3ncccc3O)CC2)c(=O)n2nc(C3=CCN(C(=O)CCC(=O)N[C@H](C(=O)N4C[C@H](O)C[C@H]4C(=O)N[C@@H](C)c4ccc(-c5scnc5C)cc4)C(C)(C)C)CC3)nc2n1CC(=O)Nc1ccc(C(F)(F)F)cc1C [X, (2S,4R)-1-((S)-2-(4-(4-(5-ethyl-6-(4-(3-hydroxypicolinoyl)piperazin-1-yl)-4-(2-((2-methyl-4-(trifluoromethyl)phenyl)amino)-2-oxoethyl)-7-oxo-4,7-dihydro-[1,2,4]triazolo[1,5-a]pyrimidin-2-yl)-3,6-dihydropyridin-1(2H)-yl)-4-oxobutanamido)-3,3-dimethylbutanoyl)-4-hydroxy-N—((S)-1-(4-(4-methylthiazol-5-yl)phenyl)ethyl)pyrrolidine-2-carboxamide]		IC50 [2]: 160 nM; GI50 [3]: > 10000 nM; GI50 [4]: 3840 nM
CCc1nc2c(NC(C)(C)C)nc(Nc3ccc4nc(OCCN5CCOCC5)ccc4c3)nc2[nH]1 [QAP1]	inhibited	
Nc1ccn([C@@H]2O[C@H](CO)[C@@H](O)C2(F)F)c(=O)n1 [Gemcitabin, gemcitabine]	inhibited	
COc1ncc(-c2nc3c(n2C(C)C)[C@H](c2ccc(Cl)cc2)N(c2cc(Cl)cn(C)c2=O)C3=O)c(OC)n1 [HDM201]	to some extent	
CC(=O)Nc1cccc(-n2c(=O)n(C3CC3)c(=O)c3c(Nc4ccc(I)cc4F)n(C)c(=O)c(C)c32)c1 [trametinib]		effect on tumor growth [5]: no effect
COc1cccc2c1C(=O)c1c(O)c3c(c(O)c1C2=O)C[C@@](O)(C(=O)CO)C[C@@H]3O[C@H]1C[C@H](N)[C@H](O)[C@H](C)O1 [Doxorubicin, doxorubicin]	inhibited	proliferation of HCT116 cells, single agent [6]: inhibited
CCc1c(N2CCN(C(=O)c3ncccc3O)CC2)c(=O)n2nc(C3=CCN(C(=O)CCCCCOc4ccc5c(c4)C(=O)N(C4CCC(=O)NC4=O)C5)CC3)nc2n1CC(=O)Nc1ccc(C(F)(F)F)cc1C (stereo not drawn) [Z, 2-(2-(1-(6-((2-(2,6-dioxopiperidin-3-yl)-3-oxoisoindolin-5-yl)oxy)hexanoyl)-1,2,3,6-tetrahydropyridin-4-yl)-5-ethyl-6-(4-(3-hydroxypicolinoyl)piperazin-1-yl)-7-oxo-[1,2,4]triazolo[1,5-a]pyrimidin-4(7H)-yl)-N-(2-methyl-4-(trifluoromethyl)phenyl)acetamide]		IC50 [2]: 90 nM; GI50 [3]: > 10000 nM; GI50 [4]: 1310 nM
CCc1c(N2CCN(C(=O)c3ncccc3O)CC2)c(=O)n2nc(C3=CCN(C(=O)[C@H](CC(C)C)NC(=O)[C@@H](O)[C@H](N)Cc4ccccc4)CC3)nc2n1CC(=O)Nc1ccc(C(F)(F)F)cc1C [Y, (2S,3R)-3-amino-N—((S)-1-(4-(5-ethyl-6-(4-(3-hydroxypicolinoyl)piperazin-1-yl)-4-(2-((2-methyl-4-(trifluoromethyl)phenyl)amino)-2-oxoethyl)-7-oxo-4,7-dihydro-[1,2,4]triazolo[1,5-a]pyrimidin-2-yl)-3,6-dihydropyridin-1(2H)-yl)-4-methyl-1-oxopentan-2-yl)-2-hydroxy-4-phenylbutanamide]		IC50 [2]: 140 nM; GI50 [3]: > 10000 nM; GI50 [4]: 1190 nM
C[C@@]1(CO)[C@H](O)CC[C@@]2(C)[C@H]1CC[C@H]1C[C@@H]3C[C@@]12CC[C@]3(O)CO [Aphidicolin, aphidicolin]	inhibited	
CCc1c(N2CCN(C(=O)c3ncccc3O)CC2)c(=O)n2nc(C3=CCOCC3)nc2n1CC(=O)Nc1ccc(C(F)(F)F)cc1C [Compound B]	inhibited	proliferation of HCT116 cells, single agent [6]: inhibited
CC[C@@]1(O)C(=O)OCc2c1cc1n(c2=O)Cc2cc3ccccc3nc2-1 [Camptothecin, camptothecin]	inhibited	
